From ChEMBL document CHEMBL1201862, “PubChem BioAssay data set” (2004)
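These data come from cells grown in 96-well plates and exposed to compound for 48 hours at five concentrations. Here, GI50 denotes the concentration required for 50% inhibition of growth.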 Activity calls are given as the source filed them. Rule as the data show it: active = GI50 up to about 1.1 µM and inactive = higher.

Assays:
Test in all cases: NCI tumour cell line growth inhibition, 48 h
[1] = system: A549
[2] = system: BT-549
[3] = system: HOP-92
[4] = system: IGROV-1
[5] = system: KM12
[6] = system: LOX IMVI
[7] = system: M14
[8] = system: Malme-3M
[9] = system: NCI-H226
[10] = system: NCI-H522
[11] = system: RPMI-8226
[12] = system: RXF 393
[13] = system: SF-539
[14] = system: SN12C
[15] = system: SNB-19
[16] = system: T47D
[17] = system: UACC-62
[18] = system: UO-31
[19] = system: SNB-75
[20] = system: TK-10

SMILES | GI50 [1] | GI50 [2] | GI50 [3] | GI50 [4] | GI50 [5] | GI50 [6] | GI50 [7] | GI50 [8] | GI50 [9] | GI50 [10] | GI50 [11] | GI50 [12] | GI50 [13] | GI50 [14] | GI50 [15] | GI50 [16] | GI50 [17] | GI50 [18] | GI50 [19] | GI50 [20]
COc1cc(C(c2cccc3ccccc23)N2C(=O)CCC2C(=O)NCc2ccccc2)cc(OC)c1OC (stereo not given) | > 100 µM (inactive) | > 100 µM (inactive) | > 100 µM (inactive) | > 100 µM (inactive) | > 100 µM (inactive) | > 100 µM (inactive) | > 100 µM (inactive) | > 100 µM (inactive) | > 100 µM (inactive) | > 100 µM (inactive) | 55.3 µM (inactive) | > 100 µM (inactive) | > 100 µM (inactive) | > 100 µM (inactive) | > 100 µM (inactive) | > 100 µM (inactive) | 64.6 µM (inactive) | > 100 µM (inactive) |  | 
CN1CCc2c(sc3ncn(C)c(=N)c23)C1 | > 100 µM (inactive) | > 100 µM (inactive) | > 100 µM (inactive) | > 100 µM (inactive) | > 100 µM (inactive) | > 100 µM (inactive) | > 100 µM (inactive) | > 100 µM (inactive) | > 100 µM (inactive) | > 100 µM (inactive) | > 100 µM (inactive) | > 100 µM (inactive) | > 100 µM (inactive) | > 100 µM (inactive) | > 100 µM (inactive) | > 100 µM (inactive) | > 100 µM (inactive) |  | > 100 µM (inactive) | > 100 µM (inactive)
C[N+](C)(C)[BH-](Br)C(O)O (stereo not given) | > 100 µM (inactive) | > 100 µM (inactive) | > 100 µM (inactive) | > 100 µM (inactive) | > 100 µM (inactive) | > 100 µM (inactive) | > 100 µM (inactive) |  |  | > 100 µM (inactive) |  | > 100 µM (inactive) | > 100 µM (inactive) | > 100 µM (inactive) | > 100 µM (inactive) | > 100 µM (inactive) | > 100 µM (inactive) | > 100 µM (inactive) | 40.6 µM (inactive) | > 100 µM (inactive)
CC(=O)OCC1OC(O[C@@H]2c3c(O)c4c(c(O)c3C3=C(NN(c5ccc([N+](=O)[O-])cc5[N+](=O)[O-])[Se]3=O)[C@@]2(C)O)C(=O)c2ccccc2C4=O)C(OC(C)=O)C(OC(C)=O)C1OC(C)=O (stereo not given in full) | 0.314 µM (active) | 0.489 µM (active) | 0.451 µM (active) | 0.303 µM (active) | 0.338 µM (active) | 0.147 µM (active) | 0.254 µM (active) | 0.157 µM (active) | 0.31 µM (active) | 0.124 µM (active) | 0.16 µM (active) | 0.31 µM (active) |  | 0.157 µM (active) | 0.323 µM (active) | 0.286 µM (active) | 0.27 µM (active) | 0.239 µM (active) | 0.394 µM (active) | 0.497 µM (active)
CCOC(=O)CN1C(=O)c2ccc(NC(=O)C(=O)O)cc2S1(=O)=O | > 100 µM (inactive) | > 100 µM (inactive) | > 100 µM (inactive) | > 100 µM (inactive) | > 100 µM (inactive) | > 100 µM (inactive) | > 100 µM (inactive) | > 100 µM (inactive) | > 100 µM (inactive) | > 100 µM (inactive) | > 100 µM (inactive) | > 100 µM (inactive) |  | > 100 µM (inactive) | > 100 µM (inactive) | > 100 µM (inactive) | > 100 µM (inactive) | > 100 µM (inactive) |  | > 100 µM (inactive)
COc1ccc(/C=C2\OC(=O)C(Cl)=C2c2ccc(OC)cc2)cc1 | > 100 µM (inactive) | 99.5 µM (inactive) | 14 µM (inactive) | > 100 µM (inactive) | > 100 µM (inactive) | > 100 µM (inactive) | > 100 µM (inactive) | > 100 µM (inactive) |  | 66.2 µM (inactive) | > 100 µM (inactive) |  | > 100 µM (inactive) | > 100 µM (inactive) | > 100 µM (inactive) | > 100 µM (inactive) | > 100 µM (inactive) | > 100 µM (inactive) | > 100 µM (inactive) | 84.5 µM (inactive)
CC12CC3(O)OC(O1)C1(COC(=O)c4ccccc4)C3CC21OC1OC(CO)C(O)C(O)C1O (stereo not given) | > 100 µM (inactive) | > 100 µM (inactive) | > 100 µM (inactive) | > 100 µM (inactive) | > 100 µM (inactive) | > 100 µM (inactive) | > 100 µM (inactive) | > 100 µM (inactive) | > 100 µM (inactive) | > 100 µM (inactive) | > 100 µM (inactive) | > 100 µM (inactive) | > 100 µM (inactive) | > 100 µM (inactive) | > 100 µM (inactive) | > 100 µM (inactive) | > 100 µM (inactive) | > 100 µM (inactive) |  | > 100 µM (inactive)
Cc1ccc(/N=N/c2c(O)ccc3cc(S(=O)(=O)O)cc(S(=O)(=O)O)c23)cc1 | > 100 µM (inactive) | > 100 µM (inactive) | > 100 µM (inactive) | > 100 µM (inactive) | > 100 µM (inactive) |  | > 100 µM (inactive) | > 100 µM (inactive) | > 100 µM (inactive) | > 100 µM (inactive) | < 0.01 µM (active) | > 100 µM (inactive) | > 100 µM (inactive) | > 100 µM (inactive) | > 100 µM (inactive) | > 100 µM (inactive) | > 100 µM (inactive) | > 100 µM (inactive) | > 100 µM (inactive) | > 100 µM (inactive)
O=C(/C=C1\N=C(c2ccccc2)N(c2ccc3c(c2)Sc2cc(N4C(=O)/C(=C/C(=O)/C=C/c5ccccc5)N=C4c4ccccc4)ccc2N3)C1=O)/C=C/c1ccccc1 | > 100 µM (inactive) | 23.5 µM (inactive) | 67.5 µM (inactive) | 37.2 µM (inactive) | > 100 µM (inactive) | 30.5 µM (inactive) | 64 µM (inactive) | 26.1 µM (inactive) |  | 20.9 µM (inactive) | 31.6 µM (inactive) | 27.3 µM (inactive) |  | 36.8 µM (inactive) | 29.7 µM (inactive) | 63.7 µM (inactive) | 18.2 µM (inactive) | 81.1 µM (inactive) | 17.3 µM (inactive) | 45.1 µM (inactive)
CN1C(=O)C2C(=O)N(Cc3ccccc3)CC(=O)N2c2cccnc21 (stereo not given) | > 100 µM (inactive) | > 100 µM (inactive) | > 100 µM (inactive) | > 100 µM (inactive) | > 100 µM (inactive) | > 100 µM (inactive) | > 100 µM (inactive) | 70.5 µM (inactive) | > 100 µM (inactive) | > 100 µM (inactive) | > 100 µM (inactive) | > 100 µM (inactive) | > 100 µM (inactive) |  | > 100 µM (inactive) | > 100 µM (inactive) | > 100 µM (inactive) | > 100 µM (inactive) | > 100 µM (inactive) | > 100 µM (inactive)
CC(=O)c1nc2ccccc2n1CC(=O)c1ccc(Cl)cc1 | 3.17 µM (inactive) | 3.55 µM (inactive) | 1.03 µM (active) | 1.39 µM (inactive) | 3.02 µM (inactive) | 0.925 µM (active) | 2.92 µM (inactive) | 3.19 µM (inactive) | 12 µM (inactive) | 2.79 µM (inactive) | 3.65 µM (inactive) | 17.6 µM (inactive) | 7.36 µM (inactive) | 5.69 µM (inactive) | 7.4 µM (inactive) | 2.45 µM (inactive) | 2.02 µM (inactive) | 9.25 µM (inactive) |  | 61.2 µM (inactive)
CCOC(=O)c1nc2ccccc2nc1Oc1cc(OC)cc(OC)c1 | > 100 µM (inactive) | > 100 µM (inactive) | 6.81 µM (inactive) | > 100 µM (inactive) | 76.9 µM (inactive) | > 100 µM (inactive) | > 100 µM (inactive) | > 100 µM (inactive) | > 100 µM (inactive) | 46.7 µM (inactive) | > 100 µM (inactive) | 53.5 µM (inactive) | 61.7 µM (inactive) | > 100 µM (inactive) | > 100 µM (inactive) | > 100 µM (inactive) | > 100 µM (inactive) | > 100 µM (inactive) |  | > 100 µM (inactive)
NS(=O)(=O)c1ccc(NC(=O)c2cc([N+](=O)[O-])cc([N+](=O)[O-])c2)cc1 | 42.6 µM (inactive) | > 100 µM (inactive) | 21.7 µM (inactive) | 23.6 µM (inactive) | 40.4 µM (inactive) | 22.8 µM (inactive) | 47.8 µM (inactive) | 24.8 µM (inactive) | 46.5 µM (inactive) |  | 30.2 µM (inactive) | > 100 µM (inactive) | 30.7 µM (inactive) | 21.7 µM (inactive) | 45.9 µM (inactive) | 18.8 µM (inactive) | 15.7 µM (inactive) | 65.6 µM (inactive) | > 100 µM (inactive) | > 100 µM (inactive)
CN(C)Cc1cc(C(=O)/C=C/c2ccc(/C=C/C(=O)c3cc(CN(C)C)c(O)c(CN(C)C)c3)cc2)cc(CN(C)C)c1O | 43 µM (inactive) | 18.6 µM (inactive) | 24.2 µM (inactive) | 35.2 µM (inactive) | 17.7 µM (inactive) | 11.9 µM (inactive) | 17 µM (inactive) | 34.6 µM (inactive) |  | 10.5 µM (inactive) | 23.4 µM (inactive) | 26.7 µM (inactive) | 24.4 µM (inactive) | 28.9 µM (inactive) | > 100 µM (inactive) | > 100 µM (inactive) | 25.9 µM (inactive) | 71.8 µM (inactive) | > 100 µM (inactive) | 36.8 µM (inactive)
